This is an account of results in US12129221B2, “Difluoro phenyl amide RIP1 inhibitor” (SIRONAX LTD, priority 2018, dated 2024).

Series [1] has as its system necrosis. Kind of series: Necrosis inhibitory activity (cell necrosis / cell viability assay). The class given is cell-based. From the text: Necrosis Inhibitory Activity
(§1) Representative IC50 of hRIP1 Kinase Assay Correlated with Our IC50 of Cell Necrosis Assay: […]

Series [2] has as its system ferroptosis. Description: Ferroptosis inhibitor activity. The class given is cell-based. The following applies: 1 uM threshold activity extrapolated. From the text:
Ferroptosis Inhibitor Activity 1 Um Threshold Activity Extrapolated

A short description of series [3]: Prodrug enhanced metabolic stability: liver microsome (L). Type of series: in vitro ADME. Also on record: key: +, Extrapolated. The text has this: (§2) Prodrug Enhanced Metabolic Stability: Liver Microsome (L), Hepatocyte (H) and PK
A short description of series [4]: Prodrug enhanced metabolic stability: hepatocyte (H). Also noted: key: +, Extrapolated. Type of series: in vitro ADME.
Text: as §2

A short description of series [5]: Prodrug enhanced metabolic stability: PK. Type of series: in vivo. Also noted: key: +, Extrapolated.
Text: as §2

Series [6] deals with HT-29. Kind of series: EC50 in HT-29. Type of series: cell-based. As to conditions: Homo sapiens.
Series [7] can be described thus: Liver microsome stability, human. The class given is in vitro ADME. The following applies: liver microsomes, comparison table with WO2016/101885 compounds, read-out: Human Liver Microsome T1/2. The text has this: (§3) Representative Metabolic Stability Data I; +, Extrapolated.
(In general: Microsomes from liver hold many membrane-bound enzymes, among them those of drug oxidation.)

A short description of series [8]: Liver microsome stability, rat. Type of series: in vitro ADME. As to conditions: liver microsomes, comparison table with WO2016/101885 compounds, read-out: Rat Liver Microsome T1/2.
Text: as §3

The nature of series [9]: Liver microsome stability, mouse. The class given is in vitro ADME. The following applies: liver microsomes, comparison table with WO2016/101885 compounds, read-out: Mouse Liver Microsome T1/2.
Text: as §3

Series [10] concerns the target Human RIP1 kinase (Homo sapiens (Human), UniProt Q13546). Kind of series: Human RIP1 kinase assay. Type of series: biochemical. The following applies: given as bound or range.
Text: as §1

A short description of series [11]: PK in rat. Also noted: species or system SD rat. As to conditions: Sprague-Dawley, in vivo, PO 10 mg/kg. From the text: Representative PK Date of Pro-Drug Compounds
Series [12] can be described thus: PK in mouse. The following applies: in vivo.
Series [13] in a line: PK in dog. The following applies: in vivo.
[14] abbreviates: Necrosis Inhibitory Activity, given as range, read-out: EC50.
[15] abbreviates: cell necrosis assay, given as bound or range, read-out: Cell viability assay, EC50.

Read-outs that look alike come from different tables or passages of the source.

Chain of Human RIP1 kinase (Q13546 whole entry): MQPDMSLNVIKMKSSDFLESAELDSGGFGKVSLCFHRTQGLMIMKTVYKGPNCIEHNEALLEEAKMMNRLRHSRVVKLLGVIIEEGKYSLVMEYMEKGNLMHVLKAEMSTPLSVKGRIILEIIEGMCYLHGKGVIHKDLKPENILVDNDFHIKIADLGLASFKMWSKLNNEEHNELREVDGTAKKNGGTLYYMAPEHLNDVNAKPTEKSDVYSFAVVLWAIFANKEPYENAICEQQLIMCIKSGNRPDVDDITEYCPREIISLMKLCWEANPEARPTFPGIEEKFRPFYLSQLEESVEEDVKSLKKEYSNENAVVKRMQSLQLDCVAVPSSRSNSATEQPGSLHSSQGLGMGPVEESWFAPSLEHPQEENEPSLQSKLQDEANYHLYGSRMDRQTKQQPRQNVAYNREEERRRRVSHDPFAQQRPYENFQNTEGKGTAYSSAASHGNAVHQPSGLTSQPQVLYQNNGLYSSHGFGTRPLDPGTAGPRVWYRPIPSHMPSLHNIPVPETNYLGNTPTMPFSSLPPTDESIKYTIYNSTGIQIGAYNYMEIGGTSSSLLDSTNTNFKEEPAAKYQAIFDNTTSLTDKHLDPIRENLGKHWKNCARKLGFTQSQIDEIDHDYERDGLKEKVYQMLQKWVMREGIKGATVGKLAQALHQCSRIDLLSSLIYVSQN

For the compound `CC(C)(C(=O)N(O)Cc1cc(F)cc(F)c1)C(F)F` [Compound 75, N-(3,5-difluorobenzyl)-3,3-difluoro-N-hydroxy-2,2-dimethylpropanamide], the values for the EC50 in series [1] (setting [14]) and in [2] were 1 to 1000 nM and 1000 to 10000 nM, respectively. Also, in [3], the L result was “+”. In series [4], the H result is recorded as “+”. Besides, in series [5], the PK entry is listed as “+”.

For the compound `CC(C)(CCF)C(=O)N(O)Cc1cc(F)cc(F)c1` [Compound 76, N-(3,5-difluorobenzyl)-4-fluoro-N-hydroxy-2,2-dimethylbutanamide], the EC50 in series [1] (setting [14]) and in series [2] was 1000 to 10000 nM each time. Also, the L result in [3] was “+”. In addition, the H entry in [4] is reported as “+”. In series [5], the PK entry was “+”.

With `CCC(C)(C)C(=O)N(O)Cc1ccc(F)cc1F` [SIR1-179], in series [6], the 50% effective concentration (EC50) (as a rule, the concentration at which the effect is half-maximal) is 197 nM. The half-life in series [7] came to 198 min; in series [8], 28 min; in series [9] it was 23 min.

For the compound `CCC1(C(=O)N(O)Cc2ccccc2)CC1` [Compound 38, N-benzyl-1-ethyl-N-hydroxycyclopropane-1-carboxamide], the values for the EC50 in series [1] (setting [14]), in series [1] (setting [15]) and in series [2] were 1000 to 10000 nM, 1 to 10000 nM and 1000 to 10000 nM, respectively. For the same compound, the IC50 (in general, the concentration at which inhibition is half-maximal) in [10] lay within 100 to 1000 nM.

`CCC(C)(C)C(=O)N(O)Cc1ccc(Cl)c(F)c1` [Compound 16, N-(4-chloro-3-fluorobenzyl)-N-hydroxy-2,2-dimethylbutanamide]: the EC50 was 1 to 1000 nM in [1] (setting [14]), 1 to 1000 nM in [1] (setting [15]) and 1000 to 10000 nM in series [2]. This compound also came in with an IC50 in [10] of under 100 nM.

For `CC(C)(C(=O)N(O)Cc1ccccc1)C(F)F` [Compound 74, N-benzyl-3,3-difluoro-N-hydroxy-2,2-dimethylpropanamide], the EC50 in series [1] (setting [14]) was 1 to 1000 nM; in series [2], 1000 to 10000 nM. In addition, the L entry in series [3] is on record as “+”. Further, in [4], the H result is “+”. Moreover, the PK result in series [5] was “+”.

`CCC(C)(C)C(=O)N(O)Cc1cnc(C)s1` [Compound 24, N-hydroxy-2,2-dimethyl-N-((2-methylthiazol-5-yl)methyl)butanamide]: the EC50 was 1 to 1000 nM in series [1] (setting [14]), 1 to 1000 nM in series [1] (setting [15]) and 1000 to 10000 nM in [2]. For the same compound, the IC50 in series [10] is 100 to 1000 nM.

With `CCC(C)(C)C(=O)N(O)Cc1ccc(F)c(F)c1F` [SIR1-184], the midpoint of the response in series [6], the EC50, lay at 272 nM. Besides, the results for the half-life in series [7], in series [8] and in [9] were 36 min, 19 min and 12 min, respectively.

Take `O=C(C1CCN(c2ncc(F)cn2)CC1)N(O)Cc1cc(F)cc(F)c1` [Compound 86, N-(3,5-difluorobenzyl)-1-(5-fluoropyrimidin-2-yl)-N-hydroxypiperidine-4-carboxamide]: the EC50 was 1 to 1000 nM in series [1] (setting [14]), 1 to 1000 nM in series [1] (setting [15]) and 1000 to 10000 nM in series [2]. Besides, the IC50 in series [10] was under 100 nM.

In series [6], `CCC(C)(C)C(=O)N(O)Cc1ccc(F)cc1` [SIR1-181] displayed an EC50 of 64 nM. The half-life in series [7] was 178 min; in [8], 37 min; in [9] it was 24 min; in series [11] (rat, po, 10 mg/kg), 32.5 min; in [12] (IV 2 mg/kg), 35.7 min; in [12] (PO 10 mg/kg), 30.8 min. In addition, the half-life in [13] (IV 5 mg/kg) is 120 min; in [13] (PO 10 mg/kg), 276 min. For the same compound, the total exposure AUC(0-inf) – broadly, total exposure, with the tail of the curve extrapolated – in [11] (Rat) amounted to 24.3 ng·h/mL; in series [12] (IV 2 mg/kg), 522 ng·h/mL; in [12] (PO 10 mg/kg), 1740 ng·h/mL; in series [13] (IV 5 mg/kg), 3210 ng·h/mL; in series [13] (PO 10 mg/kg), 148 ng·h/mL. The Cmax – broadly, the maximum level reached in the sampled fluid or tissue – in series [11] (Rat) amounted to 32.3 ng/mL; in series [12] (PO 10 mg/kg), 2850 ng/mL; in series [13] (PO 10 mg/kg), 195 ng/mL. Further, the clearance (in general, a measure of how efficiently the substance is removed, as volume per time) in [12] (IV 2 mg/kg) is 63.7 mL/min/kg; in series [13] (IV 5 mg/kg), 25.9 mL/min/kg. The Vd in series [12] (IV 2 mg/kg, read-out: Vdss) is 3.28 L/kg; in series [13] (IV 5 mg/kg, read-out: Vdss), 1.8 L/kg. Moreover, the bioavailability (commonly the share of a dose that reaches the circulation, judged against a reference dose that is usually intravenous) is 66.6% in series [12] (PO 10 mg/kg) and 2.5% in series [13] (PO 10 mg/kg).

For `CCC(C)(C)C(=O)N(O)Cc1ccc2c(c1)CCC2` [Compound 20, N-((2,3-dihydro-1H-inden-5-yl)methyl)-N-hydroxy-2,2-dimethylbutanamide], the EC50 in series [1] (setting [14]) is 1 to 1000 nM; in series [1] (setting [15]), under 100 nM; in series [2] it was 1000 to 10000 nM. This compound returned an IC50 in series [10] of under 100 nM.

For `CCC(C)(C)C(=O)N(O)Cc1ccsc1` [Compound 23, N-hydroxy-2,2-dimethyl-N-(thiophen-3-ylmethyl)butanamide], the EC50 is 1 to 1000 nM in series [1] (setting [14]), 1 to 1000 nM in series [1] (setting [15]) and 1000 to 10000 nM in series [2]. The compound also showed an IC50 in [10] of under 100 nM.

The compound `CCC(C)(C)C(=O)N(O)Cc1cc(F)c(F)c(F)c1` [SIR1-186] registered an EC50 in series [6] of 46 nM. Also, the half-life in series [7] was found to be 64 min; in series [8], 21 min; in series [9], 6 min.

With `Cc1ccsc1CN(O)C(=O)C(C)(C)C(F)(F)F` [Compound 48, 3,3,3-trifluoro-N-hydroxy-2,2-dimethyl-N-((3-methylthiophen-2-yl)methyl)propanamide], the results for the concentration giving a half-maximal response (EC50) in series [1] (setting [14]), in [1] (setting [15]) and in series [2] were 1000 to 10000 nM, 1 to 10000 nM and 1000 to 10000 nM, respectively. For the same compound, in series [10], the IC50 lay in the range of 100 to 1000 nM.

Regarding `CCC(C)(C)C(=O)N(O)Cc1cc(F)cc(F)c1F` [SIR1-176], in series [6], a half-maximal response (EC50) required 65 nM. Moreover, the figures for the half-life in series [7], in [8] and in series [9] were 67 min, 22 min and 9 min, respectively.

For `CCC(C)(C)C(=O)N(O)Cc1ccc(F)c(F)c1` [SIR1-180], the EC50 in [6] came to 55 nM. In addition, the half-life in [7] was 107 min; in series [8], 29 min; in series [9], 11 min.

In the case of `O=C(N(O)Cc1ccccc1)C1(C(F)(F)F)CCC1` [Compound 35, N-benzyl-N-hydroxy-1-(trifluoromethyl)cyclobutane-1-carboxamide], the results for the EC50 in series [1] (setting [14]), in [1] (setting [15]) and in [2] were 1 to 1000 nM, 1 to 1000 nM and 1000 to 10000 nM, respectively. Also, the IC50 in [10] is 100 to 1000 nM.

In the case of `O=C(C1CCN(c2ncc(F)cn2)CC1)N(O)Cc1ccccc1` [Compound 84, N-benzyl-1-(5-fluoropyrimidin-2-yl)-N-hydroxypiperidine-4-carboxamide], the figures for the EC50 in series [1] (setting [14]), in series [1] (setting [15]) and in [2] were 1 to 1000 nM, under 100 nM and 1000 to 10000 nM, respectively. This compound also yielded an IC50 in [10] of under 100 nM.

For `CCC(C)(C)C(=O)N(Cc1ccccc1)OC(=O)OCCOCCOCCOC(=O)ON(Cc1ccccc1)C(=O)C(C)(C)CC` [Compound 55, N,N′-(2,5,8,11-tetraoxadodecanedioylbis(oxy))bis(N-benzyl-2,2-dimethylbutanamide)], the EC50 in [1] (Active Pro-drugs, read-out: EC50) was 99.3 nM. In [3], the L result is on record as “+”. Moreover, the H result in [4] is “+”. The PK result in [5] was “+”.
